Experimental data published in PMC6199309, “A therapeutic approach to pantothenate kinase associated neurodegeneration” (Nature Communications, 2018).
Like-named read-outs stand apart in the source and are kept apart here.

Columns and labels:
PAK1 = target: T1, PAK1 (Homo sapiens, UniProt Q13153); assay: KINOMEscan; assay type: binding; conditions: read-out: %Ctrl @ 10000nM
T1 construct: purchased DiscoverX KINOMEscan

TNNI3K = target: T2, TNNI3K (Homo sapiens, UniProt Q59H18); assay: KINOMEscan; assay type: binding; conditions: read-out: %Ctrl @ 10000nM
T2 construct: purchased DiscoverX KINOMEscan
T2 sequence (Q59H18 whole entry): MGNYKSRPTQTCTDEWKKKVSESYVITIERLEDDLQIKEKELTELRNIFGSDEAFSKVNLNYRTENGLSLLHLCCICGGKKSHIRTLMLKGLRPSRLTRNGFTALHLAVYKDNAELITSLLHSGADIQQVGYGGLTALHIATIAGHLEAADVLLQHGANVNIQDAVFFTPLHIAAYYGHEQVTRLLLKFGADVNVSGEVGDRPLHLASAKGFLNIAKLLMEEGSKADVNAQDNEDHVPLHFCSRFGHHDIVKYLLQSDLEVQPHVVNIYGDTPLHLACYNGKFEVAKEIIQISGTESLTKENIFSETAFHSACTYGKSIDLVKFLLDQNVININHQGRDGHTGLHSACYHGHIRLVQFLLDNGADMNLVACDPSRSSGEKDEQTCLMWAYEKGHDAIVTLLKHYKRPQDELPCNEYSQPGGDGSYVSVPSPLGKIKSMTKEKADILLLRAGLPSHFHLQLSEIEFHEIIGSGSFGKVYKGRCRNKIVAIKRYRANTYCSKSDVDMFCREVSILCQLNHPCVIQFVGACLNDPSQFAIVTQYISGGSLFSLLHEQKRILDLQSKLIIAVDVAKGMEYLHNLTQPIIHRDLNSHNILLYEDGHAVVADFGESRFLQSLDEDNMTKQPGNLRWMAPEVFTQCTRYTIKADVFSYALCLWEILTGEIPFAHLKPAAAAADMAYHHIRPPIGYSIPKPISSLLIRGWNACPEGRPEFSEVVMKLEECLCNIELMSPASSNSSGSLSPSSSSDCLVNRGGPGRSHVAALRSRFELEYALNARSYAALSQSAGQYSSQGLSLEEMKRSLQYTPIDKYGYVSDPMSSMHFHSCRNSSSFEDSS

PRKG1 = target: T3, PRKG1 (Homo sapiens, UniProt Q13976); assay: KINOMEscan; assay type: binding; conditions: read-out: %Ctrl @ 10000nM
T3 construct: purchased DiscoverX KINOMEscan

ABL1-phosphorylated = target: T4, ABL1-phosphorylated (Homo sapiens, UniProt P00519); assay: KINOMEscan; assay type: binding; conditions: read-out: %Ctrl @ 10000nM
T4 construct: purchased DiscoverX KINOMEscan

PRKCI = target: T5, PRKCI (Homo sapiens, UniProt P41743); assay: KINOMEscan; assay type: binding; conditions: read-out: %Ctrl @ 10000nM
T5 construct: purchased DiscoverX KINOMEscan

MKNK2 = target: T6, MKNK2 (Homo sapiens, UniProt Q9HBH9); assay: KINOMEscan; assay type: binding; conditions: read-out: %Ctrl @ 10000nM
T6 construct: purchased DiscoverX KINOMEscan

CDK5 = target: T7, CDK5 (Homo sapiens, UniProt Q00535); assay: KINOMEscan; assay type: binding; conditions: read-out: %Ctrl @ 10000nM
T7 construct: purchased DiscoverX KINOMEscan

PRKCQ = target: T8, PRKCQ (Homo sapiens, UniProt Q04759); assay: KINOMEscan; assay type: binding; conditions: read-out: %Ctrl @ 10000nM
T8 construct: purchased DiscoverX KINOMEscan

[1] = target: T9, JAK1(JH2domain-pseudokinase) (Homo sapiens, UniProt P23458); assay: KINOMEscan; assay type: binding; conditions: read-out: %Ctrl @ 10000nM
T9 construct: JAK1(JH2domain-pseudokinase); purchased DiscoverX KINOMEscan

MTOR = target: T10, MTOR (Homo sapiens, UniProt P42345); assay: KINOMEscan; assay type: binding; conditions: read-out: %Ctrl @ 10000nM
T10 construct: purchased DiscoverX KINOMEscan

MEK4 = target: T11, MEK4 (Homo sapiens, UniProt P45985); assay: KINOMEscan; assay type: binding; conditions: read-out: %Ctrl @ 10000nM
T11 construct: purchased DiscoverX KINOMEscan

CAMK2A = target: T12, CAMK2A (Homo sapiens, UniProt Q9UQM7); assay: KINOMEscan; assay type: binding; conditions: read-out: %Ctrl @ 10000nM
T12 construct: purchased DiscoverX KINOMEscan

SIK = target: T13, SIK (Homo sapiens, UniProt P57059); assay: KINOMEscan; assay type: binding; conditions: read-out: %Ctrl @ 10000nM
T13 construct: purchased DiscoverX KINOMEscan

PDGFRB = target: T14, PDGFRB (Homo sapiens, UniProt P09619); assay: KINOMEscan; assay type: binding; conditions: read-out: %Ctrl @ 10000nM
T14 construct: purchased DiscoverX KINOMEscan

TNIK = target: T15, TNIK (Homo sapiens, UniProt Q9UKE5); assay: KINOMEscan; assay type: binding; conditions: read-out: %Ctrl @ 10000nM
T15 construct: purchased DiscoverX KINOMEscan
T15 sequence (Q9UKE5 whole entry): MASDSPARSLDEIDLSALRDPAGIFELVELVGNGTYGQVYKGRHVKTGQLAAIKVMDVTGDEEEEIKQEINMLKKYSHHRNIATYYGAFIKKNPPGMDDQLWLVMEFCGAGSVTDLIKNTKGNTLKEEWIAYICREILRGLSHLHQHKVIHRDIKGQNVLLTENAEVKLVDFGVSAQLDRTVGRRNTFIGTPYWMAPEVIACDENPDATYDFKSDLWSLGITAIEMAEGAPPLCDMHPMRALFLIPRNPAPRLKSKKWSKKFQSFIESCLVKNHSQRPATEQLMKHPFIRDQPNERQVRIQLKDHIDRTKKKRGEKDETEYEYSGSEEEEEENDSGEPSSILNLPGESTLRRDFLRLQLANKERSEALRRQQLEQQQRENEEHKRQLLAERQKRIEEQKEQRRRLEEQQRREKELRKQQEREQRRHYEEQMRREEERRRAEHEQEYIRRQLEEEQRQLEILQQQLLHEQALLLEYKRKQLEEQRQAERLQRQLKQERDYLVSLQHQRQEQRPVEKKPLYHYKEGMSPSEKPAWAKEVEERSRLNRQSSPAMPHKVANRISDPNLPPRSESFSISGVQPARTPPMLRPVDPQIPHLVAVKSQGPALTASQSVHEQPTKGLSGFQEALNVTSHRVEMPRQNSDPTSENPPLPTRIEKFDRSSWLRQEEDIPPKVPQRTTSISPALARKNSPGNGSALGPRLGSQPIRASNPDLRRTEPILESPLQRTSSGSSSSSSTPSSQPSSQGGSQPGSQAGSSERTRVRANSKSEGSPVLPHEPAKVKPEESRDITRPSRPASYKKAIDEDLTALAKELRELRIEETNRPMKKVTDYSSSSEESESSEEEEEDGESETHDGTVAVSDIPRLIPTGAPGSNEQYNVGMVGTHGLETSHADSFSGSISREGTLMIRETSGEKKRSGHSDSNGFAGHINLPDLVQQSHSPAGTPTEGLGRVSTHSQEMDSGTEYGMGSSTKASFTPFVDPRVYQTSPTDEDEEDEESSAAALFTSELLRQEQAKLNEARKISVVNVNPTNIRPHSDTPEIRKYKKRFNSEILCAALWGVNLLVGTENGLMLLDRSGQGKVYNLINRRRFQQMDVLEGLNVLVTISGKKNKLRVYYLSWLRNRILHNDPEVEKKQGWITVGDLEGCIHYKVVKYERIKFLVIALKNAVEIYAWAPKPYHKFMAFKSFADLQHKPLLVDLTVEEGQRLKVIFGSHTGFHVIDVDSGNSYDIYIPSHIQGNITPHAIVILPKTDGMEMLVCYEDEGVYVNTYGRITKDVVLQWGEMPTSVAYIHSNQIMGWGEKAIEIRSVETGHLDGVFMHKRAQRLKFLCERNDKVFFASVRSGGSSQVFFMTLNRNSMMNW

DYRK1B = target: T16, DYRK1B (Homo sapiens, UniProt Q9Y463); assay: KINOMEscan; assay type: binding; conditions: read-out: %Ctrl @ 10000nM
T16 construct: purchased DiscoverX KINOMEscan
T16 sequence (Q9Y463 whole entry): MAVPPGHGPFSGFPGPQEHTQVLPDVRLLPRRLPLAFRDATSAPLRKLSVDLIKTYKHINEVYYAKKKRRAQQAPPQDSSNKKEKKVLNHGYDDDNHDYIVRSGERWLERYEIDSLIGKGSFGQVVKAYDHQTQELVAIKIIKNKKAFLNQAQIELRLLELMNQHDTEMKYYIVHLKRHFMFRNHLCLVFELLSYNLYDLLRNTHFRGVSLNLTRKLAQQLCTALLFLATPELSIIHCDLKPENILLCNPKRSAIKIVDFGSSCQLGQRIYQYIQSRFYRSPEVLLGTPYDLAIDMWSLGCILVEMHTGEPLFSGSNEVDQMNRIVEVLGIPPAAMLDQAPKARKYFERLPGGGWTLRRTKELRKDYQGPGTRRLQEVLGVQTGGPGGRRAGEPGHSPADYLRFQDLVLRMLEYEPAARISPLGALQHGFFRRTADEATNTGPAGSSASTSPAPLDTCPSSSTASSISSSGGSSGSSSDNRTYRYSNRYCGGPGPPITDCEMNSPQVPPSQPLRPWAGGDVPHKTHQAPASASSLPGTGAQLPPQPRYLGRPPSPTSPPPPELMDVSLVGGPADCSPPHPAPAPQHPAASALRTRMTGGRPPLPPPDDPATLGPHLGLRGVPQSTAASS

MET = target: T17, MET (Homo sapiens, UniProt P08581); assay: KINOMEscan; assay type: binding; conditions: read-out: %Ctrl @ 10000nM
T17 construct: purchased DiscoverX KINOMEscan

[2] = target: T18, ABL1(Q252H)-phosphorylated (Homo sapiens, UniProt P00519, Q252H); assay: KINOMEscan; assay type: binding; conditions: read-out: %Ctrl @ 10000nM
T18 construct: purchased DiscoverX KINOMEscan

BMX = target: T19, BMX (Homo sapiens, UniProt P51813); assay: KINOMEscan; assay type: binding; conditions: read-out: %Ctrl @ 10000nM
T19 construct: purchased DiscoverX KINOMEscan
T19 sequence (P51813 whole entry): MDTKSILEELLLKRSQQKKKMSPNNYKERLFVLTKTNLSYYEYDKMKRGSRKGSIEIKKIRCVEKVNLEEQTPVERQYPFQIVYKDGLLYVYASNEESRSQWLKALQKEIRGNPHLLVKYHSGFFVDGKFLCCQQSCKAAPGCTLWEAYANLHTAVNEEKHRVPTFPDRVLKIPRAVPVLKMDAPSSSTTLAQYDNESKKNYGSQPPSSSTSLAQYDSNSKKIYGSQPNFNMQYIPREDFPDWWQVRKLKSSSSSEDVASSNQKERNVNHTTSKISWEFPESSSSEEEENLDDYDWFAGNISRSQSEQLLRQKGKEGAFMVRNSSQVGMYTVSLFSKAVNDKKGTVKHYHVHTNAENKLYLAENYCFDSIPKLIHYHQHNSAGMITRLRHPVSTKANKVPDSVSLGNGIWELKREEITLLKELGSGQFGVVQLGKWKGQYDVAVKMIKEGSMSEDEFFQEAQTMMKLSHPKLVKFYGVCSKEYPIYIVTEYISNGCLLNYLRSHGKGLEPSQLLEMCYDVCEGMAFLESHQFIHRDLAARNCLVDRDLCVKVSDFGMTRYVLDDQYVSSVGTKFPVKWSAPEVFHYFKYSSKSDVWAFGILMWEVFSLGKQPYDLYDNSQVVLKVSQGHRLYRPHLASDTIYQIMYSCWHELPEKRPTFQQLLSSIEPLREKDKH

BRK = target: T20, BRK (Homo sapiens, UniProt Q13882); assay: KINOMEscan; assay type: binding; conditions: read-out: %Ctrl @ 10000nM
T20 construct: purchased DiscoverX KINOMEscan

ERK5 = target: T21, ERK5 (Homo sapiens, UniProt Q13164); assay: KINOMEscan; assay type: binding; conditions: read-out: %Ctrl @ 10000nM
T21 construct: purchased DiscoverX KINOMEscan

[3] = Pharmacokinetics in plasma of male BALB/c mice; assay type: in vivo; conditions: mouse
Experimental: Supplementary Table 2. […] Mean pharmacokinetic parameters of PZ- […]
administration to male BALB/c micea.
Dose Tmax C0/ Cmaxc AUClast AUCinf T1/2 CL Vss %Fd […]
aPharmacokinetics measurements performed by Sai Life Sciences Limited. […]
cBack extrapolated concentration for i.v. group. dBioavailability was calculated based on AUClast.

ROCK2 = target: T22, ROCK2 (Homo sapiens, UniProt O75116); assay: KINOMEscan; assay type: binding; conditions: read-out: %Ctrl @ 10000nM
T22 construct: purchased DiscoverX KINOMEscan

EPHA5 = target: T23, EPHA5 (Homo sapiens, UniProt P54756); assay: KINOMEscan; assay type: binding; conditions: read-out: %Ctrl @ 10000nM
T23 construct: purchased DiscoverX KINOMEscan

AURKA = target: T24, AURKA (Homo sapiens, UniProt O14965); assay: KINOMEscan; assay type: binding; conditions: read-out: %Ctrl @ 10000nM
T24 construct: purchased DiscoverX KINOMEscan

RIOK2 = target: T25, RIOK2 (Homo sapiens, UniProt Q9BVS4); assay: KINOMEscan; assay type: binding; conditions: read-out: %Ctrl @ 10000nM
T25 construct: purchased DiscoverX KINOMEscan

SGK3 = target: T26, SGK3 (Homo sapiens, UniProt Q96BR1); assay: KINOMEscan; assay type: binding; conditions: read-out: %Ctrl @ 10000nM
T26 construct: purchased DiscoverX KINOMEscan

IRAK1 = target: T27, IRAK1 (Homo sapiens, UniProt P51617); assay: KINOMEscan; assay type: binding; conditions: read-out: %Ctrl @ 10000nM
T27 construct: purchased DiscoverX KINOMEscan

RET(V804M) = target: T28, RET(V804M) (Homo sapiens, UniProt P07949, V804M); assay: KINOMEscan; assay type: binding; conditions: read-out: %Ctrl @ 10000nM
T28 construct: purchased DiscoverX KINOMEscan

WNK3 = target: T29, WNK3 (Homo sapiens, UniProt Q9BYP7); assay: KINOMEscan; assay type: binding; conditions: read-out: %Ctrl @ 10000nM
T29 construct: DNA label for qPCR (T7 phage fusion or DNA tag); purchased DiscoverX scanMAX; host or cells: E. coli BL21-derived (T7 phage) or HEK-293

GRK7 = target: T30, GRK7 (Homo sapiens, UniProt Q8WTQ7); assay: KINOMEscan; assay type: binding; conditions: read-out: %Ctrl @ 10000nM
T30 construct: purchased DiscoverX KINOMEscan

PRKD1 = target: T31, PRKD1 (Homo sapiens, UniProt Q15139); assay: KINOMEscan; assay type: binding; conditions: read-out: %Ctrl @ 10000nM
T31 construct: purchased DiscoverX KINOMEscan

IKK-alpha = target: T32, IKK-alpha (Homo sapiens, UniProt O15111); assay: KINOMEscan; assay type: binding; conditions: read-out: %Ctrl @ 10000nM
T32 construct: purchased DiscoverX KINOMEscan
T32 sequence (O15111 whole entry): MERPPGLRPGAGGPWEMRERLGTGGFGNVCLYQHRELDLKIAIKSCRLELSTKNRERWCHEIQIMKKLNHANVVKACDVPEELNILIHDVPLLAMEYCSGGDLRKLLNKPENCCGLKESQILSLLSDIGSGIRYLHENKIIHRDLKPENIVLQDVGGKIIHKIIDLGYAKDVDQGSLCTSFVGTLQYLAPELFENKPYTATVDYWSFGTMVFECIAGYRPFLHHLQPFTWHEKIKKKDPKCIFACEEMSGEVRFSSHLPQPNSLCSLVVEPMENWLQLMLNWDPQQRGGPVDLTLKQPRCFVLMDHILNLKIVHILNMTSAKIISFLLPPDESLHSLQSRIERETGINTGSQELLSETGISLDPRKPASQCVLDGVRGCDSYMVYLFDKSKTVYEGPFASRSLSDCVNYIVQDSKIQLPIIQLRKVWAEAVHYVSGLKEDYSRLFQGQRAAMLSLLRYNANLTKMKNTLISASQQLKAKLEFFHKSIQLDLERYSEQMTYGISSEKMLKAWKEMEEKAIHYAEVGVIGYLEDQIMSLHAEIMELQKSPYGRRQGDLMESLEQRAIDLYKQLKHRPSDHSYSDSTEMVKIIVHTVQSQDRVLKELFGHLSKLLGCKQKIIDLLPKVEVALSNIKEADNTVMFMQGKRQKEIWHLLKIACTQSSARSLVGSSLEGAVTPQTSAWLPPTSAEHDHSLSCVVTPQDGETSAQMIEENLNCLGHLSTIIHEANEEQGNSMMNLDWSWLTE

KIT-autoinhibited = target: T33, KIT-autoinhibited (Homo sapiens, UniProt P10721); assay: KINOMEscan; assay type: binding; conditions: read-out: %Ctrl @ 10000nM
T33 construct: purchased DiscoverX KINOMEscan

NEK1 = target: T34, NEK1 (Homo sapiens, UniProt Q96PY6); assay: KINOMEscan; assay type: binding; conditions: read-out: %Ctrl @ 10000nM
T34 construct: purchased DiscoverX KINOMEscan

HIPK1 = target: T35, HIPK1 (Homo sapiens, UniProt Q86Z02); assay: KINOMEscan; assay type: binding; conditions: read-out: %Ctrl @ 10000nM
T35 construct: purchased DiscoverX KINOMEscan

CDK9 = target: T36, CDK9 (Homo sapiens, UniProt P50750); assay: KINOMEscan; assay type: binding; conditions: read-out: %Ctrl @ 10000nM
T36 construct: purchased DiscoverX KINOMEscan
T36 sequence (P50750 whole entry): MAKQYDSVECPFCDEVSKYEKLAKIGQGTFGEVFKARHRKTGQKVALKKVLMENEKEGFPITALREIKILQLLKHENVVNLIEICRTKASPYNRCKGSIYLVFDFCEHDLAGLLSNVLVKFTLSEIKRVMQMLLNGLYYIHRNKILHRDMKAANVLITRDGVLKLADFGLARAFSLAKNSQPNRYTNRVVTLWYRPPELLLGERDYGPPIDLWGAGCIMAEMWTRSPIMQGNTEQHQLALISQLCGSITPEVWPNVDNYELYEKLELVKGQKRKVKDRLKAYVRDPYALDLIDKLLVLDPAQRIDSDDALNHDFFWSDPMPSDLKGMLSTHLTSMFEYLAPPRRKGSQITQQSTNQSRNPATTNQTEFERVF

PIP5K2C = target: T37, PIP5K2C (Homo sapiens, UniProt Q8TBX8); assay: KINOMEscan; assay type: binding; conditions: read-out: %Ctrl @ 10000nM
T37 construct: purchased DiscoverX KINOMEscan
T37 sequence (Q8TBX8 whole entry): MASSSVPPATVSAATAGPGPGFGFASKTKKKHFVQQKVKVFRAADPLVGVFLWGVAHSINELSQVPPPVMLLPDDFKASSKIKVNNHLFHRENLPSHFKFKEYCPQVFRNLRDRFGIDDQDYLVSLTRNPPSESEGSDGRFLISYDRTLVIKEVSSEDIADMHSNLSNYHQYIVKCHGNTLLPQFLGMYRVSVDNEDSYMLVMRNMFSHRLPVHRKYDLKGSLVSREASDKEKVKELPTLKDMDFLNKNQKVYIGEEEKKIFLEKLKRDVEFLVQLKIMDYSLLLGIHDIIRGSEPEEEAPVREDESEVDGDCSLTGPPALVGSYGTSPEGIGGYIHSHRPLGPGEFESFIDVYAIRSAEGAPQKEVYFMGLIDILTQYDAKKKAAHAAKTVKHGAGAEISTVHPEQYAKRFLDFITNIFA

CC(C)c1ccc(CC(=O)N2CCN(c3ccc(C#N)nn3)CC2)cc1 [PZ-2891, 6-(4-(2-(4-isopropylphenyl)acetyl)piperazin-1-yl)pyridazine-3-carbonitrile]
remaining binding at 10 µM (PAK1): 76%
remaining binding at 10 µM (TNNI3K): 76%
remaining binding at 10 µM (PRKG1): 99%
remaining binding at 10 µM (ABL1-phosphorylated): 78%
remaining binding at 10 µM (PRKCI): 83%
remaining binding at 10 µM (MKNK2): 79%
remaining binding at 10 µM (CDK5): 87%
remaining binding at 10 µM (PRKCQ): 100%
remaining binding at 10 µM [1]: 47%
remaining binding at 10 µM (MTOR): 68%
remaining binding at 10 µM (MEK4): 100%
remaining binding at 10 µM (CAMK2A): 98%
remaining binding at 10 µM (SIK): 83%
remaining binding at 10 µM (PDGFRB): 75%
remaining binding at 10 µM (TNIK): 91%
remaining binding at 10 µM (DYRK1B): 66%
remaining binding at 10 µM (MET): 80%
remaining binding at 10 µM [2]: 74%
remaining binding at 10 µM (BMX): 100%
remaining binding at 10 µM (BRK): 80%
remaining binding at 10 µM (ERK5): 93%
half-life ([3]; intravenous, 2 mg/kg, mice plasma, read-out: T1/2 (mice plasma)): 17 min
AUC(0-inf) ([3]; plasma, iv, i.v. 2 mg/kg): 611 ng·h/mL
AUC(0-t) ([3]; plasma, iv, i.v. 2 mg/kg): 609 ng·h/mL
clearance ([3]; plasma, iv, i.v. 2 mg/kg): 54.5 mL/min/kg
C0 ([3]; plasma, iv, i.v. 2 mg/kg, back extrapolated concentration): 2810 ng/mL
half-life ([3]; plasma, iv, i.v. 2 mg/kg, read-out: T1/2 (converted)): 16.8 min
Vd ([3]; plasma, iv, i.v. 2 mg/kg, read-out: Vss): 0.94 L/kg
AUC(0-inf) ([3]; plasma, po, p.o. 10 mg/kg): 1420 ng·h/mL
AUC(0-t) ([3]; plasma, po, p.o. 10 mg/kg): 1400 ng·h/mL
Cmax ([3]; plasma, po, p.o. 10 mg/kg): 1890 ng/mL
Tmax ([3]; plasma, po, p.o. 10 mg/kg): 15 min
remaining binding at 10 µM (ROCK2): 100%
remaining binding at 10 µM (EPHA5): 88%
remaining binding at 10 µM (AURKA): 75%
remaining binding at 10 µM (RIOK2): 86%
remaining binding at 10 µM (SGK3): 71%
remaining binding at 10 µM (IRAK1): 91%
remaining binding at 10 µM (RET(V804M)): 95%
remaining binding at 10 µM (WNK3): 100%
remaining binding at 10 µM (GRK7): 93%
remaining binding at 10 µM (PRKD1): 89%
remaining binding at 10 µM (IKK-alpha): 100%
remaining binding at 10 µM (KIT-autoinhibited): 81%
remaining binding at 10 µM (NEK1): 100%
remaining binding at 10 µM (HIPK1): 61%
remaining binding at 10 µM (CDK9): 98%
remaining binding at 10 µM (PIP5K2C): 85%
